In ChEMBL document CHEMBL4680157, “Design, synthesis and biological evaluation of novel TRβ selective agonists sustained by ADME-toxicity analysis” (Eur J Med Chem, 2020):
Calls of active or inactive are those of the source. The rule behind the calls is not given here.

What was measured:
[1] = biological target: T1, Thyroid hormone receptor alpha (Homo sapiens, UniProt P10827); assay: Agonist activity at TRalpha (unknown origin) by Lanthascreen TR-FRET assay
T1 sequence (P10827 whole entry): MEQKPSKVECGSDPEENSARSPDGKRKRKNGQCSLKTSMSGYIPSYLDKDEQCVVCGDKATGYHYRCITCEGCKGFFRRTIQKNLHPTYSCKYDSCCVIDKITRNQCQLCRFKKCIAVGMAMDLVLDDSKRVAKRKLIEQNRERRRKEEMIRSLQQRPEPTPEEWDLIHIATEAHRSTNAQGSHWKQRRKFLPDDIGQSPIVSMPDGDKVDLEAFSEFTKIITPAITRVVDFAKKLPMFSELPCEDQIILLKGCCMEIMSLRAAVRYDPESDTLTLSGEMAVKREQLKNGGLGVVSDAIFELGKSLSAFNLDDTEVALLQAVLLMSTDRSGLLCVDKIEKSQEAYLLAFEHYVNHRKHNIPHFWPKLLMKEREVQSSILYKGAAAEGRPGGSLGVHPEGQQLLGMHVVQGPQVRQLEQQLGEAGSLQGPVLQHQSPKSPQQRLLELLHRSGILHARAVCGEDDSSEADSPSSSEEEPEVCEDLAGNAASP

[2] = biological target: T2, Thyroid hormone receptor beta (Homo sapiens, UniProt P10828); assay: Agonist activity at TRbeta (unknown origin) by Lanthascreen TR-FRET assay
T2 sequence (P10828 whole entry): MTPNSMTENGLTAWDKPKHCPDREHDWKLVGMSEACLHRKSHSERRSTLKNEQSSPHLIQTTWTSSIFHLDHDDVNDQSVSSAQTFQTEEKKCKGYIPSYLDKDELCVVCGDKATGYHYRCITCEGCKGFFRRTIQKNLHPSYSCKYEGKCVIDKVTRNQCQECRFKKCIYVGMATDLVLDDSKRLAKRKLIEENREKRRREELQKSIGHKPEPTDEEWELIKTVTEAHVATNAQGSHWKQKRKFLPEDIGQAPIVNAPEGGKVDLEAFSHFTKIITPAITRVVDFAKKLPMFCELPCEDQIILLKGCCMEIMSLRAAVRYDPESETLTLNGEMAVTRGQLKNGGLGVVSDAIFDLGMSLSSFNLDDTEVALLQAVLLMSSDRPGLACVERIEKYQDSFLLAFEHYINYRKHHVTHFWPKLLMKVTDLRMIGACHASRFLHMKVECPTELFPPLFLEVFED

[3] = biological target: T3, TRalpha (thyroid hormone receptor alpha) (Homo sapiens, UniProt P10827); assay: Agonist activity at TRalpha (unknown origin) at 1 uM by Lanthascreen TR-FRET assay relative to control; settings: read-out: Activity
T3 sequence (P10827 whole entry): T1 sequence (P10827 whole entry)

[4] = Toxicity in F344 rat assessed as effect on serum triglycerides level at 100 ug per 100 g body weight, ig administered daily for 3 days (reference value: 86.8 +/- 10.4 mg/dl); settings: in vivo, po, 72 h, dose 100 µg, time 3 day
[5] = Toxicity in F344 rat assessed as effect on serum AST/GOT level at 100 ug per 100 g body weight, ig administered daily for 3 days (reference value: 153 +/- 11 U/L); settings: in vivo, po, 72 h, dose 100 µg, time 3 day
[6] = Toxicity in F344 rat assessed as effect on serum ALT/GPT level at 75 ug per 100 g body weight, ig administered daily for 3 days (reference value: 46 +/- 4 U/L); settings: in vivo, po, 72 h, dose 75 µg, time 3 day
[7] = Toxicity in F344 rat assessed as effect on serum bilirubin level at 100 ug per 100 g body weight, ig administered daily for 3 days (reference value: 1.4 +/- 0.2 mg/dl); settings: in vivo, po, 72 h, dose 100 µg, time 3 day
[8] = Toxicity in F344 rat assessed as effect on serum triglycerides level at 50 ug per 100 g body weight, ig administered daily for 3 days (reference value: 86.8 +/- 10.4 mg/dl); settings: in vivo, po, 72 h, dose 50 µg, time 3 day
[9] = Toxicity in F344 rat assessed as effect on serum triglycerides level at 75 ug per 100 g body weight, ig administered daily for 3 days (reference value: 86.8 +/- 10.4 mg/dl); settings: in vivo, po, 72 h, dose 75 µg, time 3 day
[10] = Toxicity in F344 rat assessed as effect on serum triglycerides level at 75 ug per 100 g body weight, ip administered daily for 3 days (reference value: 86.8 +/- 10.4 mg/dl); type: organism-based; settings: in vivo, 72 h, dose 75 µg, time 3 day
[11] = biological target: AMP-activated protein kinase, AMPK (Homo sapiens) (UniProt P54646+O43741+P54619+Q9UGJ0+Q9Y478+Q13131+Q9UGI9); assay: Activation of AMPK in human HepG2 cells assessed as ratio of phosphorylated AMPK at 10 uM measured after 24 hrs by Western blot analysis; type: cell-based; settings: filed as activator
[12] = Toxicity in F344 rat assessed as effect on serum bilirubin level at 75 ug per 100 g body weight, ig administered daily for 3 days (reference value: 1.4 +/- 0.2 mg/dl); settings: in vivo, po, 72 h, dose 75 µg, time 3 day
[13] = Toxicity in F344 rat assessed as effect on serum ALT/GPT level at 100 ug per 100 g body weight, ig administered daily for 3 days (reference value: 46 +/- 4 U/L); settings: in vivo, po, 72 h, dose 100 µg, time 3 day
[14] = Toxicity in F344 rat assessed as effect on serum cholesterol level at 100 ug per 100 g body weight, ig administered daily for 3 days (reference value: 67.2 +/- 2.5 mg/dl); settings: in vivo, po, 72 h, dose 100 µg, time 3 day
[15] = Toxicity in F344 rat assessed as effect on serum glucose level at 75 ug per 100 g body weight, ip administered daily for 3 days (reference value: 151 +/- 13.5 mg/dl); type: organism-based; settings: in vivo, 72 h, dose 75 µg, time 3 day
[16] = Toxicity in F344 rat assessed as reduction in liver and body weight ratio at 50 to 100 ug per 100 g body weight, ig administered daily for 3 days; type: tissue-based; settings: in vivo, po, 72 h, dose 50-100 µg, time 3 day

| EC50 [1] [nM] | EC50 [2] [nM] | activity at 1 µM [3] [%] | Activity [11] | Structure (SMILES) | Activity [4] [mg/dL] | Activity [5] [U/L] | Activity [6] [U/L] | Activity [7] [mg/dL] | Activity [8] [mg/dL] | Activity [9] [mg/dL] | Activity [10] [mg/dL] | Activity [12] [mg/dL] | Activity [13] [U/L] | Activity [14] [mg/dL] | Activity [15] [mg/dL] | Activity [16] |
| --- | --- | --- | --- | --- | --- | --- | --- | --- | --- | --- | --- | --- | --- | --- | --- | --- |
| 54 | 32 |  |  | Cc1cc(OCC(=O)O)cc(C)c1Cc1ccc(O)cc1 |  |  |  |  |  |  |  |  |  |  |  |  |
|  |  | 30 | Active | Cc1cc(OCC(=O)O)cc(C)c1Cc1ccc(N)c(C(C)C)c1 | 67.8 | 102 | 43 | 1 | 68.3 | 74 | 79.6 | 1.6 | 42 | 70.1 | 129 | Non-Toxic |
|  |  |  | Active | CC(=O)Nc1ccc(Cc2c(C)cc(OCC(=O)O)cc2C)cc1C(C)C | 62.8 | 108 | 46 | 1.1 | 70.4 | 67 | 74.2 | 0.9 | 37 | 67.6 | 132 | Non-Toxic |
